Assay results from patent publication US20250136568A1, “FUSED HETEROCYCLIC COMPOUNDS AS PI3KALPHA INHIBITORS” (Nanjing Zenshine Pharmaceuticals Co., Ltd., priority 2021, published 2025).
Like-named read-outs stand apart in the source and are kept apart here.

What was measured:
[1] = test system: PI3Kα H1047R mutation cell line T-47D; assay: Cell Proliferation IC50 Assay (CellTiter-Glo), T-47D; type: cell-based; settings: T47D (H1047R), 72 hours, CellTiter-Glo, read-out: IC50 (μM) T47D
Text: (§1) PI3Kα H1047R mutation cell line T-47D and MDA-MB-453, E545K mutation cell line MDA-MB-361 and PI3Kα wide type cell line SK-BR-3 were purchased from Cobioer Biotech (cat. no CBP60397, CBP60386, CBP60383 and CBP60413 respectively). The CellTiter-Glo Direct Cell Proliferation Assay Kit was purchased from Prornega (cat. No. G7573)
(§2) For cell proliferation assay in each cell line: • a. Prepare complete medium (R PMI 1640, DMEM or McCoys): Add FBS and appropriate additives according to the information sheet provided by the vendor. Mix gently. • b. Prepare single cell suspension and count the cell numbers and adjust cells to appropriate density. • c. Add 80 μL of cell suspension to 96-well opaque-walled clear bottom plates according to the planned plate layout and place the plates in the CO2 incubator overnight. • d. Prepare intermediate plate: 10 μl of diluted test compounds or staurosporine solution (200×) is added to a 96 deep well plate. Then 390 μl of culture medium without FBS is added to the respective wells. • e. Transfer 20 μL of the solutions from the above intermediate plate to the wells of the plate prepared containing 80 μL of the culture medium and cells. The total dilution is 200 folds. • f. The cells were then incubated at 5% CO2, 37° C. for 72 hours. • g. Equilibrate the plate and its contents to room temperature for approximately 30 minutes. • h. Add 100 μL of CellTiter-Glo reagent to the assay plate • i. Mix contents for 10 minutes on an orbital shaker to induce cell lysis. • j. Allow the plate to incubate at room temperature for 10 minutes to stabilize luminescent signal, • k. Paste the clear bottom with white back seal and record luminescence with Varioskan LUX plate reader.
(§3) Inhibition % and IC50 value were calculated by the formula described below: […]

[2] = test system: PI3Kα wide type cell line SK-BR-3; assay: Cell Proliferation IC50 Assay (CellTiter-Glo), SK-BR-3; type: cell-based; settings: SK-BR-3 (PI3Kα wild type), 72 hours, CellTiter-Glo, read-out: IC50 (μM) SK-BR-3
Text: as §1, §2, §3

Structure (SMILES) | IC50 ([1]; Homo sapiens, T47D, 72 h) [µM] | IC50 ([2]; Homo sapiens) [µM] | IC50 [1] [µM] | IC50 [2] [µM] | IC50 ([1]; Homo sapiens) [µM]
Cc1cc([C@H](C)Nc2ccccc2C(=O)O)c2oc(-c3ccc4nn(C)cc4c3)c(C)c(=O)c2c1 (single isomer, unassigned) [Example 49B] | 7.24 | > 10 |  |  | 
Cc1cc([C@H](C)Nc2ccccc2C(=O)O)c2oc(-c3ccc(-c4cnn(C)c4)cc3)cc(=O)c2c1 (single isomer, unassigned) [Example 95B] | 0.99 | > 10 |  |  | 
COC(=O)N1CCN(c2ccc(-c3oc4c([C@@H](C)Nc5ccccc5C(=O)O)cc(C)cc4c(=O)c3C)cn2)CC1 (single isomer, unassigned) [Example 155A] | 0.12 | > 10 |  |  | 
COC(=O)N1CCN(c2ccc(-c3oc4c([C@H](C)Nc5ccccc5C(=O)O)cc(C)cc4c(=O)c3C)cn2)CC1 (single isomer, unassigned) [Example 155B] | 5.06 | > 10 |  |  | 
Cc1cc([C@@H](C)Nc2ccccc2C(=O)O)c2oc(-c3ccc(OCC4CCCN4C)cc3)c(C)c(=O)c2c1 (single isomer, unassigned) [Example 172A] | 0.065 | > 10 |  |  | 
Cc1cc([C@@H](C)Nc2ccccc2C(=O)O)c2oc(-c3ccc(OCC4CCCN4C)cc3)c(C)c(=O)c2c1 (single isomer, unassigned) [Example 172B] |  |  | 0.063 | > 10 | 
Cc1cc(C(C)Nc2ccccc2C(=O)O)c2oc(-c3ccc4c(c3)CNC4=O)cc(=O)c2c1 (stereo not shown) [Example 5, 2-((1-(6-methyl-4-oxo-2-(1-oxoisoindolin-5-yl)-4H-chromen-8-yl)ethyl)amino)benzoic acid] | 1.54 | > 10 |  |  | 
Cc1cc(C(C)Nc2ccccc2C(=O)O)c2oc(C3CCN(C(C)C(F)(F)F)CC3)cc(=O)c2c1 (stereo not shown) [Example 16, 2-((1-(6-methyl-4-oxo-2-(1-(1,1,1-trifluoropropan-2-yl)piperidin-4-yl)-4H-chromen-8-yl)ethyl)amino)benzoic acid] | 2.56 | > 10 |  |  | 
Cc1cc(C(C)Nc2ccccc2C(=O)O)c2oc(C3=CCN(C(C)C(F)(F)F)CC3)cc(=O)c2c1 (stereo not shown) [Example 17, 2-((1-(6-methyl-4-oxo-2-(1-(1,1,1-trifluoropropan-2-yl)-1,2,3,6-tetrahydropyridin-4-yl)-4H-chromen-8-yl)ethyl)amino)benzoic acid] | 2.07 | > 10 |  |  | 
Cc1cc(C(C)Nc2ccccc2C(=O)O)c2oc(-c3ccccn3)cc(=O)c2c1 (stereo not shown) [Example 31, 2-((1-(6-methyl-4-oxo-2-(pyridin-2-yl)-4H-chromen-8-yl)ethyl)amino)benzoic acid] | 0.9 | > 10 |  |  | 
Cc1cc(C(C)Nc2ccccc2C(=O)O)c2oc(-c3ccc4cnccc4c3)cc(=O)c2c1 (stereo not shown) [Example 36, 2-((1-(2-(isoquinolin-6-yl)-6-methyl-4-oxo-4H-chromen-8-yl)ethyl)amino)benzoic acid] | 0.2 | > 10 |  |  | 
Cc1cc(C(C)Nc2ccccc2C(=O)O)c2oc(-c3cnn(C4COC4)c3)cc(=O)c2c1 (stereo not shown) [Example 40, 2-((1-(6-methyl-2-(1-(oxetan-3-yl)-1H-pyrazol-4-yl)-4-oxo-4H-chromen-8-yl)ethyl)amino)benzoic acid] | 2.51 | > 10 |  |  | 
Cc1cc(C(C)Nc2ccccc2C(=O)O)c2oc(-c3ccc(N4CCNCC4)cc3)cc(=O)c2c1 (stereo not shown) [Example 41, 2-((1-(6-methyl-4-oxo-2-(4-(piperazin-1-yl)phenyl)-4H-chromen-8-yl)ethyl)amino)benzoic acid] | 1.43 | > 10 |  |  | 
Cc1cc(C(C)Nc2ccccc2C(=O)O)c2oc(-c3ccc(N4CCC(F)(F)CC4)cc3)cc(=O)c2c1 (stereo not shown) [Example 43, 2-((1-(2-(4-(4,4-difluoropiperidin-1-yl)phenyl)-6-methyl-4-oxo-4H-chromen-8-yl)ethyl)amino)benzoic acid] | 0.28 | > 10 |  |  | 
Cc1cc(C(C)Nc2ccccc2C(=O)O)c2oc(-c3cc4n(c3)CCN(C)C4=O)c(C)c(=O)c2c1 (stereo not shown) [Example 72, 2-((1-(3,6-dimethyl-2-(2-methyl-1-oxo-1,2,3,4-tetrahydropyrrolo[1,2-a]pyrazin-7-yl)-4-oxo-4H-chromen-8-yl)ethyl)amino)benzoic acid] | 5.08 | > 10 |  |  | 
Cc1cc(C(C)Nc2ccccc2C(=O)O)c2oc(-c3cc4n(n3)CCN(C)C4=O)c(C)c(=O)c2c1 (stereo not shown) [Example 73, 2-((1-(3,6-dimethyl-2-(5-methyl-4-oxo-4,5,6,7-tetrahydropyrazolo[1,5-a]pyrazin-2-yl)-4-oxo-4H-chromen-8-yl)ethyl)amino)benzoic acid] | 2.01 | > 10 |  |  | 
Cc1cc(C(C)Nc2ccccc2C(=O)O)c2oc(-c3ccc(N4CCOCC4)nc3)c(C)c(=O)c2c1 (stereo not shown) [Example 81, 2-((1-(3,6-dimethyl-2-(6-morpholinopyridin-3-yl)-4-oxo-4H-chromen-8-yl)ethyl)amino)benzoic acid] | 0.15 | > 10 |  |  | 
Cc1cc(C(C)Nc2ccccc2C(=O)O)c2oc(-c3cnc4nn(C)cc4c3)cc(=O)c2c1 (stereo not shown) [Example 82, 2-((1-(6-methyl-2-(2-methyl-2H-pyrazolo[3,4-b]pyridin-5-yl)-4-oxo-41H-chromen-8-yl)ethyl)amino)benzoic acid] | > 10 | > 10 |  |  | 
Cc1cc(C(C)Nc2ccccc2C(=O)O)c2oc(-c3cc4cn(C)nc4cn3)cc(=O)c2c1 (stereo not shown) [Example 83, 2-((1-(6-methyl-2-(2-methyl-2H-pyrazolo[3,4-c]pyridin-5-yl)-4-oxo-41H-chromen-8-yl)ethyl)amino)benzoic acid] |  | > 10 |  |  | 0.38
Cc1cc(C(C)Nc2ccccc2C(=O)O)c2oc(-c3cc(F)c4nn(C)cc4c3)cc(=O)c2c1 (stereo not shown) [Example 85, 2-((1-(2-(7-fluoro-2-methy-2H-indazol-5-yl)-6-methyl-4-oxo-4H-chromen-8-yl)ethyl)amino)benzoic acid] | 0.13 | > 10 |  |  | 
CCn1cc2cc(-c3cc(=O)c4cc(C)cc(C(C)Nc5ccccc5C(=O)O)c4o3)ccc2n1 (stereo not shown) [Example 93, 2-((1-(2-(2-ethyl-2H-indazol-5-yl)-6-methyl-4-oxo-41H-chromen-8-yl)ethyl)amino)benzoic acid] | 0.31 | > 10 |  |  | 
Cc1cc(C(C)Nc2ccccc2C(=O)O)c2oc(-c3ccc4c(c3)CN(C)C4)cc(=O)c2c1 (stereo not shown) [Example 94, 2-((1-(6-methyl-2-(2-methylisoindolin-5-yl)-4-oxo-4-chromen-8-yl)ethyl)amino)benzoic acid] | 1.02 | > 10 |  |  | 
CC(Nc1ccccc1C(=O)O)c1cc(F)cc2c(=O)cc(-c3ccc4nn(C)cc4c3)oc12 (stereo not shown) [Example 101, 2-((1-(6-fluoro-2-(2-methyl-2H-indazol-5-yl)-4-oxo-4H-chromen-8-yl)ethyl)amino)benzoic acid] | 0.29 | > 10 |  |  | 
Cc1cc(C(C)Nc2ccccc2C(=O)O)c2nc(-c3ccc4nn(C)cc4c3)cc(=O)n2c1 (stereo not shown) [Example 108, 2-((1-(7-methyl-2-(2-methyl-2H-indazol-5-yl)-4-oxo-4H-pyrido[1,2-a]pyrimidin-9-yl)ethyl)amino)benzoic acid] | 0.84 | > 10 |  |  | 
Cc1cc(C(C)Nc2cnccc2C(=O)O)c2oc(-c3ccc4nn(C)cc4c3)cc(=O)c2c1 (stereo not shown) [Example 112, 3-((1-(6-methyl-2-(2-methyl-2H-indazol-5-yl)-4-oxo-4H-chromen-8-yl)ethyl)amino)isonicotinic acid] | > 10 | > 10 |  |  | 
Cc1cc(C(C)Nc2ncccc2C(=O)O)c2oc(-c3ccc4nn(C)cc4c3)cc(=O)c2c1 (stereo not shown) [Example 113, 2-((1-(6-methyl-2-(2-methyl-2H-indazol-5-yl)-4-oxo-4H-chromen-8-yl)ethyl)amino)nicotinic acid] | 0.67 | > 10 |  |  | 
Cc1cc(C(C)Nc2cccnc2C(=O)O)c2oc(-c3ccc4nn(C)cc4c3)cc(=O)c2c1 (stereo not shown) [Example 114, 3-((1-(6-methyl-2-(2-methyl-21-indazol-5-yl)-4-oxo-4H-chromen-8-yl)ethyl)amino)picolinic acid] | 0.46 | > 10 |  |  | 
CC(=O)N1CCN(c2ccc(-c3oc4c([C@@H](C)Nc5ccccc5C(=O)O)cc(C)cc4c(=O)c3C)nc2)CC1 [Example 115, (R)-2-((1-(2-(5-(4-acetylpiperazin-1-yl)pyridin-2-yl)-3,6-dimethyl-4-oxo-4H-chromen-8-yl)ethyl)amino)benzoic acid] |  | 3.43 |  |  | 0.074
Cc1cc(C(C)Nc2ccccc2C(=O)O)c2oc(-c3cc4cnccc4[nH]3)cc(=O)c2c1 (stereo not shown) [Example 116] | 0.97 | > 10 |  |  | 
